Data reported in US12383579B2, “Materials and methods of using an inhibitor of plasminogen activation to treat anastomotic leak” (THE UNIVERSITY OF CHICAGO, priority 2018, dated 2025).
“Also recorded” adds a separate entry of the source.

Columns and labels:
[1] = test system: type IV collagen degradation by V583; experiment: Type IV collagen degradation by E. faecalis V583 with PLG and uPA; type: biochemical, Enterococcus faecalis
Method: Collagen degradation. Assays were performed per the manufacturer's instructions as previously described with slight modifications (51′). Bacteria were grown overnight in TY. Optical density was normalized to 0.1 through dilution. […] Total reaction volume was 200 L. The incubation proceeded at 37° C. for 5 hours to allow for bacterial attachment to collagen and PLG binding. uPA was added and the incubation proceeded for an additional hour. Change in fluorescence over time at 480/520 nm was determined kinetically over the initial 30 minutes of the reaction.

[2] = test system: FITC-labeled PLG binding to E. faecalis V583 cell surface; experiment: Flow cytometric evaluation of FITC-PLG binding to E. faecalis; set-up: species or system Enterococcus faecalis; conditions: for geometric mean fluorescence intensity of cells (surface-bound FITC-PLG): 1768 in the absence of TXA
Method: Flow cytometric evaluation of PLG binding. PLG binding to the bacterial surface was measured as previously described, with minor modifications (52′). Bacteria were grown overnight in TY. Cultures were diluted to a final density of roughly 8×10^6 CFU/mL. […] Cells were pelleted, washed three times with PBS, and resuspended. Fluorescence was analyzed using an Imagestream ISX flow cytometer. Enterococci were detected using log-forward and log-side scatter dot plots, and a gating region was set to exclude debris and aggregates of bacteria. Bacteria were analyzed for FITC-range fluorescence using log-scale amplification, of which the geometric mean fluorescence intensity was recorded as a measure for PLG binding. FITC-range fluorescent signal was confirmed by light and fluorescent microscopy of each event.
Flow cytometry was performed after incubation of V583 with FITC-labeled PLG as before. 80.9% of cells reached a subjectively determined threshold for surface-bound FITC-PLG. […] The effect was concentration-dependent and statistically significant (FIG. 37D).

[3] = test system: polymicrobial communities cultured from the postoperative mouse colon; experiment: Plasmin activity assay of polymicrobial communities from postoperative mouse colon; type: biochemical; conditions: 10 mM TXA, exogenous PLG and uPA
Method: Polymicrobial communities collected from homogenized tissue and luminal contents were cultured aerobically in nonspecific media and underwent plasmin activity assays in the presence of human PLG and uPA. […] (*p<0.05, ANCOVA). Error bars indicate means±SD. All data are representative of three separate experiments, each run in triplicate.
Plasminogen/uPA activity. Plasmin activity assays were performed as previously described with minor modifications, and fluorescence data was analyzed per the manufacturer's instructions (50′). Incubation times were optimized for bacteria at low optical density to limit internal filter effects in fluorescence-based assays. Bacteria (when included) were grown overnight in TY media. […] A final concentration of 6 M fluorogenic substrate specific for plasmin (H-D-Val-Leu-Lys-AFC, AnaSpec) was added immediately prior to a kinetic fluorescent read with excitation wavelength 380 nm and emission wavelength 500 nm. Reads were conducted every 15 to 30 seconds over the course of 30 minutes. […] When assays were performed in human plasma, fluorescence was read for 120 minutes total.
Plasmin activity assays were measured in polymicrobial communities cultured aerobically from homogenized luminal contents or tissue following anastomotic surgery without antibiotics and without introduction of a leak-inducing pathogen (e.g., E. faecalis, P. aeruginosa, S. marcescens). […]

[4] = target: T1, P. aeruginosa MPAO1-P2 plasminogen activation (Homo sapiens, UniProt P00747); experiment: PLG activation by P. aeruginosa; type: biochemical; conditions: TY 1:1 with PBS (10 mM phosphate), or water plus 10 mM TXA, versus water alone
T1 construct: 250 nM human glu-plasminogen (Haematologic technologies); purchased Haematologic technologies
Method: Plasminogen/uPA activity. Plasmin activity assays were performed as previously described with minor modifications, and fluorescence data was analyzed per the manufacturer's instructions (50′). Incubation times were optimized for bacteria at low optical density to limit internal filter effects in fluorescence-based assays. Bacteria (when included) were grown overnight in TY media. OD600 was normalized by dilution to 0.1, equivalent to 8×10^7 CFU/mL. Samples at OD 0.1 were diluted 1:10 in the final reaction through the addition of media and dissolved substrates. Bacteria were incubated with 250 nM human glu-plasminogen (Haematologic technologies) for two hours at 37° C. TXA (Fisher) was added concomitantly with PLG. A final concentration of 4 nM uPA (Biovision) or pro-uPA (Biovision) was added and incubation proceeded for 20 minutes. A final concentration of 6 M fluorogenic substrate specific for plasmin (H-D-Val-Leu-Lys-AFC, AnaSpec) was added immediately prior to a kinetic fluorescent read with excitation wavelength 380 nm and emission wavelength 500 nm. Reads were conducted every 15 to 30 seconds over the course of 30 minutes. For assays of uPA activity, PLG was omitted from the incubation and a substrate specific to uPA (Z-Gly-Gly-Arg-AMC, Bachem) was used. When assays were performed in human plasma, fluorescence was read for 120 minutes total. […]

[5] = test system: E. faecalis V583 and FITC-PLG at the anastomotic site; experiment: Co-localization of E. faecalis and PLG at the anastomotic site; type: in vivo, mice; conditions: TXA enema POD 1, 2, 3; POD3
Source text: Co-localization of E. faecalis and PLG: Mice underwent anastomotic surgery with postoperative introduction of E. faecalis V583. The mice received post-operative TXA or vehicle enemas as described herein. They received a systemic (intra-peritoneal) injection of 100 L 4 M FITC-labeled PLG one hour prior to sacrifice. Anastomotic tissue was collected in sterile fashion and cryosectioned. Slides were stained with 4′,6-diamidino-2-phenylindole (DAPI) for colonic mucosa. For visualization of microbial organisms, the inventors used probes designed by Miacom Diagnostics, which use a fluorescence in situ hybridization (FISH) beacon-based technology. An E. faecalis-specific probe was labeled with Alexa Fluor 647. Staining was performed overnight per the manufacturer's protocol. Confocal microscopy was performed on a Leica SP5 II AOBS tandem scanner spectral confocal system on a DMI6000 microscope and controlled by LASAF software (version 2.8.3). […] channels were collected at each location using sequential excitation (excitation: 405, 488, and 633; emission: 412-452, 495-537, and 654-755 nm pass bands) on either photomultiplier or HyD hybrid detectors. […]
Co-localization of E. faecalis and plasminogen at the anastomotic site. […] Mice undergoing E. faecalis-mediated anastomotic leak were administered FITC-labeled PLG (as observed by green fluorescence) systemically. […]

T1 sequence (P00747 20-810): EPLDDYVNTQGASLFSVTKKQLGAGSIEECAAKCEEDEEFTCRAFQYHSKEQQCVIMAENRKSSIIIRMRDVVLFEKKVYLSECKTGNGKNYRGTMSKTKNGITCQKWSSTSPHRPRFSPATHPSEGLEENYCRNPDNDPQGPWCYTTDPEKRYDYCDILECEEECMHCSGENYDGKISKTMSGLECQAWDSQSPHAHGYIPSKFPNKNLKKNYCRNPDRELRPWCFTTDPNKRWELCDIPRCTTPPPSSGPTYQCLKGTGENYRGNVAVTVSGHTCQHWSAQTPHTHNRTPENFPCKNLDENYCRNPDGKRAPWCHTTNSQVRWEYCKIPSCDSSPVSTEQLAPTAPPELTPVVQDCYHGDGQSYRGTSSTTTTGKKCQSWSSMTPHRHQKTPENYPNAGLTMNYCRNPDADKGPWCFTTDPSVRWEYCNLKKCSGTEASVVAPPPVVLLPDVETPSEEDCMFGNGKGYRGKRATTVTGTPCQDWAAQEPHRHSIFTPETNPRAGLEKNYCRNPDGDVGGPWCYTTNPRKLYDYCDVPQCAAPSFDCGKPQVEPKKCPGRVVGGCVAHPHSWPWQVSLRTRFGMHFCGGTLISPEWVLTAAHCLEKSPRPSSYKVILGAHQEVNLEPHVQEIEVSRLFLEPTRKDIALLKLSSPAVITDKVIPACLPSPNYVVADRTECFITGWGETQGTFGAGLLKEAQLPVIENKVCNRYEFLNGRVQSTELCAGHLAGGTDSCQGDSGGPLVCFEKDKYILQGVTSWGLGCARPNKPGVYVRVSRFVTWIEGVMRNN

## NC[C@H]1CC[C@H](C(=O)O)CC1 [TXA, tranexamic acid]
[1]; V583, PLG, uPA and TXA
  type IV collagen degradation by V583 with PLG and uPA: concentration-dependent inhibition
[1]; same concentration levels as for PLG activation (FIG. 23)
  reduction of bacterial collagen degradation: over 80%
[2]; 2 mM TXA
  geometric mean fluorescence intensity of cells (surface-bound FITC-PLG): 936
[2]; 10 mM TXA
  geometric mean fluorescence intensity of cells (surface-bound FITC-PLG): 77
[2]; flow cytometry and single-cell microscopy
  surface binding of FITC-PLG by E. faecalis: decrease in surface binding of FITC-PLG; also recorded: Fluorescent signal was not present
[3]
  plasmin-activating activity of polymicrobial communities: significantly inhibited
[4]
  PLG activation by P. aeruginosa: significantly attenuated
[4]; listed as Tranexamic acid
  PLG activation by P. aeruginosa: inhibits
[5]
  co-localization of V583 with FITC-PLG at the anastomotic site: effectively prevented co-localization
  penetration of V583 into the colonic mucosa: diminished penetration of V583 into the colonic mucosa
